pIC50: −log10 of the molar value.
Experiments:
Assay type in all cases: cell-based
IOR/CAR ES cells = test: Cell viability IC50, IOR/CAR; details: Homo sapiens
Procedure: (§1) The plate was installed into the RTCA system, and the electrical impedance (represented as cell index) was measured every 10 min.
(§2) To investigate the relationship between the level of CD99 expression and drug sensitivity, the endogenous expression of CD99 was determined in a panel of 9 ES and 13 non-ES cell lines. The recombinant purified CD99-ECD protein was used to generate standard curves for immunoquantification of CD99 expression by immunoblotting (FIGS. 6B and 6C).

IOR/OS20 OS cells = test: Cell viability IC50, IOR/OS20; details: Homo sapiens
Procedure: as §1, §2

[1] = molecular target: T1, interaction of CD99 with cyclophilin A and PKA-RIIα (Homo sapiens, UniProt P14209); test: Co-immunoprecipitation of CD99 with cyclophilin A and PKA-RIIα; details: 3 μmol/L, 6 h; RDES or STA-ET-7.2 cells
T1 construct: Endogenous CD99 was immunoprecipitated from RDES or STA-ET-7.2 ES cells; endogenous in cells; host or cells: RDES or STA-ET-7.2
Procedure: In FIG. 7A, STA-ET-7.2 ES cells were incubated with either drug at 5 μmol/L concentration or DMSO for 1 h. The cells were treated with cross-linking agent BS^3 as described in the Examples. The lysates were resolved in 12% SDS-PAGE followed by immunoblotting with anti-actin and anti-CD99 clone 013 antibodies. M and D represent monomeric and dimeric forms of CD99, respectively. Values given below the lanes on the immunoblot represent the relative density of the bands, and were determined using ImageJ 1.48v software. In FIG. 7B, RDES or STA-ET-7.2 ES cells were treated with 3 μmol/L of either drug for 6 h. Endogenous CD99 was immunoprecipitated from total cell lysates using either anti-CD99 clone 12E7 antibody or anti-CD99 clone 013 antibody. Immunoblot (IB) analysis was performed for cyclophilin A, CD99 and PKA-RIIα using both cell lysates (TCL) and immunoprecipitated (IP) samples. Values given below the lanes on each immunoblot represent the relative density of the bands, and were determined using ImageJ 1.48v software. In FIG. 7C, SAOS-2 and U-2 OS cells were transiently transfected with an empty mammalian expression vector (EV) or an expression construct containing a cDNA encoding full length human CD99. The growth rate of cells was monitored by electrical impedance in real time. […]

T1 sequence (P14209 23-185): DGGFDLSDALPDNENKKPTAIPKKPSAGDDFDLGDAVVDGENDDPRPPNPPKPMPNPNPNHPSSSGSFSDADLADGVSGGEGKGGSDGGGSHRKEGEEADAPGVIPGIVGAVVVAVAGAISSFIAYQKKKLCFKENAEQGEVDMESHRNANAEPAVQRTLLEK

Nc1nc(Cl)nc2c1ncn2[C@H]1C[C@H](O)[C@@H](CO)O1 [cladribine] was tested, and the pIC50 (IOR/CAR ES cells) was 6.18, the pIC50 (IOR/OS20 OS cells) was less than 4.52 and the “amount of coprecipitated cyclophilin A and PKA-RIIα” value [1] was “decreased significantly”.
Nc1nc(Cl)nc2c1ncn2[C@@H]1O[C@H](CO)[C@@H](O)[C@@H]1F [clofarabine] was tested, and the pIC50 (IOR/CAR ES cells) was 6.54, the pIC50 (IOR/OS20 OS cells) was less than 5.00 and the “amount of coprecipitated cyclophilin A and PKA-RIIα” value [1] was “decreased significantly”.
